# According to patent publication US7932255B2, “2-aminocarbonyl substituted piperazine or diaza-cyclic compounds as apoptosis protein inhibitors (lap) modulators” (Novartis AG, priority 2006, dated 2011):
# Biological target: T1, XIAP (Homo sapiens, UniProt P98170)
# T1 construct: GST
# Test: Disruption of the Smac peptide-(XIAP)BIR3 protein-protein interaction (Tables 2 and 3)
# Assay type: binding
# Conditions: Series A compounds, Table 2; read-out: XIAP IC50
# Description: IC50 values for Series A compounds for XIAP. An assay capable of measuring disruption of the Smac peptide-(XIAP)BIR3 protein-protein interaction is established in the art as described in Example 2. In this assay IAP Inhibitor compounds compete with an immobilized Smac peptide for occupancy of the BIR3 binding pocket of XIAP. The rationale for this strategy results from the mutually exclusive nature of either Caspase 9 or Smac binding to the BIR3 pocket.
# Assays are performed and IC50 values are calculated as follows: […]
# IC50 values are calculated by logarithmic regression analysis of the percentage inhibition of each compound at 4 concentrations (usually 3- or 10-fold dilution series starting at 10 μM). In each experiment, the actual inhibition by reference compound is used for normalization of IC50 values to the basis of an average value of the reference inhibitor: Normalized IC50=measured IC50 average ref. IC50/measured ref. IC50
# Activity determinations of compounds herein using the testing method described herein and as are well known in the art, are used with the following test compounds of formula (I). […] “Activity” as used herein is defined as having IC50 values for IAP target inhibition of less than 10 μM. Specifically, in the table:
# IC50 values for Series B compounds are provided for XIAP. Assays are performed as described above using methods well known in the art.
# T1 sequence (P98170 248-358 limits assumed, species assumed): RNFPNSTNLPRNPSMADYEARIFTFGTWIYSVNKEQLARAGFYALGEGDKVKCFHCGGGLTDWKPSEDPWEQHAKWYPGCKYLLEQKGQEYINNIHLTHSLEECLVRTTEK
row,Compound,IC50 [µM]
1,"CN[C@@H](C)C(=O)N[C@H](C(=O)N1CCN(Cc2ccc(OC)cc2)C[C@H]1C(=O)NC1CCCc2ccccc21)C(C)C (stereo partly drawn) [Compound 6, (S)-4-(4-Methoxy-benzyl)-1-[(S)-3-methyl-2-((S)-2-methylamino-propionylamino)-butyryl]-piperazine-2-carboxylic acid (1,2,3,4-tetrahydro-naphthalen-1-yl)-amide]",< 10
2,"CN[C@@H](C)C(=O)N[C@H](C(=O)N1CCN(CCC(C)C)C[C@H]1C(=O)NC1CCCc2ccccc21)C(C)C (stereo partly drawn) [Compound 24, (S)-4-(3-Methyl-butyl)-1-[(S)-3-methyl-2-((S)-2-methylamino-propionylamino)-butyryl]-piperazine-2-carboxylic acid (1,2,3,4-tetrahydro-naphthalen-1-yl)-amide]",< 10
3,"CN[C@@H](C)C(=O)N[C@H](C(=O)N1CCN(CC2CCCC2)C[C@H]1C(=O)NC1CCCc2ccccc21)C(C)C (stereo partly drawn) [Compound 7, (S)-4-Cyclopentylmethyl-1-[(S)-3-methyl-2-((S)-2-methylamino-propionylamino)-butyryl]-piperazine-2-carboxylic acid (1,2,3,4-tetrahydro-naphthalen-1-yl)-amide]",< 10
4,"CN[C@@H](C)C(=O)N[C@H](C(=O)N1CCN(C(=O)OCc2ccccc2)C[C@H]1C(=O)NC1CCCc2ccccc21)C(C)C (stereo partly drawn) [Compound 13, (S)-4-[(S)-3-Methyl-2-((S)-2-methylamino-propionylamino)-butyryl]-3-(1,2,3,4-tetrahydro-naphthalen-1-ylcarbamoyl)-piperazine-1-carboxylic acid benzyl ester]",< 10
5,"4-Benzyl-1-[3-methyl-2-(2-methylamino-propionylamino)-butyryl]-piperazine-2-carboxylic acid (1,2,3,4-tetrahydro-naphthalen-1-yl)-amide [Compound 1]",< 10
6,"CN[C@@H](C)C(=O)N[C@H](C(=O)N1CCN(Cc2ccc(C#N)cc2)C[C@H]1C(=O)NC1CCCc2ccccc21)C(C)C (stereo partly drawn) [Compound 43, (S)-4-(4-Cyano-benzyl)-1-[(S)-3-methyl-2-((S)-2-methylamino-propionylamino)-butyryl]-piperazine-2-carboxylic acid (1,2,3,4-tetrahydro-naphthalen-1-yl)-amide]",< 10
7,"CN[C@@H](C)C(=O)N[C@H](C(=O)N1CCN(S(=O)(=O)c2ccc(F)cc2)C[C@H]1C(=O)NC1CCCc2ccccc21)C(C)C (stereo partly drawn) [Compound 35, (S)-4-(4-Fluoro-benzenesulfonyl)-1-[(S)-3-methyl-2-((S)-2-methylamino-propionylamino)-butyryl]-piperazine-2-carboxylic acid (1,2,3,4-tetrahydro-naphthalen-1-yl)-amide]",< 10
8,"CN[C@@H](C)C(=O)N[C@H](C(=O)N1CCN(C(=O)N2CCCC2)C[C@H]1C(=O)NC1CCCc2ccccc21)C(C)C (stereo partly drawn) [Compound 47, (S)-1-[(S)-3-Methyl-2-((S)-2-methylamino-propionylamino)-butyryl]-4-(pyrrolidine-1-carbonyl)-piperazine-2-carboxylic acid (1,2,3,4-tetrahydro-naphthalen-1-yl)-amide]",< 10
9,"CN[C@@H](C)C(=O)N[C@H](C(=O)N1CCN(Cc2ccccc2OC)C[C@H]1C(=O)NC1CCCc2ccccc21)C(C)C (stereo partly drawn) [Compound 37, (S)-4-(2-Methoxy-benzyl)-1-[(S)-3-methyl-2-((S)-2-methylamino-propionylamino)-butyryl]-piperazine-2-carboxylic acid (1,2,3,4-tetrahydro-naphthalen-1-yl)-amide]",< 10
10,"CN[C@@H](C)C(=O)N[C@H](C(=O)N1CCN(C(=O)c2ccc(NC(C)=O)cc2)C[C@H]1C(=O)NC1CCCc2ccccc21)C(C)C (stereo partly drawn) [Compound 27, (S)-4-(4-Acetylamino-benzoyl)-1-[(S)-3-methyl-2-((S)-2-methylamino-propionylamino)-butyryl]-piperazine-2-carboxylic acid (1,2,3,4-tetrahydro-naphthalen-1-yl)-amide]",< 10
11,"CN[C@@H](C)C(=O)N[C@H](C(=O)N1CCN(CCC(C)(C)C)C[C@H]1C(=O)NC1CCCc2ccccc21)C(C)C (stereo partly drawn) [Compound 21, (S)-4-(3,3-Dimethyl-butyl)-1-[(S)-3-methyl-2-((S)-2-methylamino-propionylamino)-butyryl]-piperazine-2-carboxylic acid (1,2,3,4-tetrahydro-naphthalen-1-yl)-amide]",< 10
12,"CN[C@@H](C)C(=O)N[C@H](C(=O)N1CCN(C(=O)c2ccc(F)cc2)C[C@H]1C(=O)NC1CCCc2ccccc21)C(C)C (stereo partly drawn) [Compound 17, (S)-4-(4-Fluoro-benzoyl)-1-[(S)-3-methyl-2-((S)-2-methylamino-propionylamino)-butyryl]-piperazine-2-carboxylic acid (1,2,3,4-tetrahydro-naphthalen-1-yl)-amide]",< 10
13,"CN[C@@H](C)C(=O)N[C@H](C(=O)N1CCN(Cc2ccc(F)cc2)C[C@H]1C(=O)NC1CCCc2ccccc21)C(C)C (stereo partly drawn) [Compound 10, (S)-4-(4-Fluoro-benzyl)-1-[(S)-3-methyl-2-((S)-2-methylamino-propionylamino)-butyryl]-piperazine-2-carboxylic acid (1,2,3,4-tetrahydro-naphthalen-1-yl)-amide]",< 10
14,"CN[C@@H](C)C(=O)N[C@H](C(=O)N1CCN(S(=O)(=O)CCC(F)(F)F)C[C@H]1C(=O)NC1CCCc2ccccc21)C(C)C (stereo partly drawn) [Compound 26, (S)-1-[(S)-3-Methyl-2-((S)-2-methylamino-propionylamino)-butyryl]-4-(3,3,3-trifluoro-propane-1-sulfonyl)-piperazine-2-carboxylic acid (1,2,3,4-tetrahydro-naphthalen-1-yl)-amide]",< 10
15,"CN[C@@H](C)C(=O)N[C@H](C(=O)N1CCN(CC2CC2)C[C@H]1C(=O)NC1CCCc2ccccc21)C(C)C (stereo partly drawn) [Compound 36, (S)-4-Cyclopropylmethyl-1-[(S)-3-methyl-2-((S)-2-methylamino-propionylamino)-butyryl]-piperazine-2-carboxylic acid (1,2,3,4-tetrahydro-naphthalen-1-yl)-amide]",< 10
16,"CN[C@@H](C)C(=O)N[C@H](C(=O)N1CCN(Cc2ccccc2Cl)C[C@H]1C(=O)NC1CCCc2ccccc21)C(C)C (stereo partly drawn) [Compound 45, (S)-4-(2-Chloro-benzyl)-1-[(S)-3-methyl-2-((S)-2-methylamino-propionylamino)-butyryl]-piperazine-2-carboxylic acid (1,2,3,4-tetrahydro-naphthalen-1-yl)-amide]",< 10
17,"CN[C@@H](C)C(=O)N[C@H](C(=O)N1CCN(Cc2cccc(Oc3ccccc3)c2)C[C@H]1C(=O)NC1CCCc2ccccc21)C(C)C (stereo partly drawn) [Compound 4, (S)-1-[(S)-3-Methyl-2-((S)-2-methylamino-propionylamino)-butyryl]-4-(3-phenoxy-benzyl)-piperazine-2-carboxylic acid (1,2,3,4-tetrahydro-naphthalen-1-yl)-amide]",< 10
18,"CN[C@@H](C)C(=O)N[C@H](C(=O)N1CCN(Cc2ccccc2)C[C@H]1C(=O)NC1CCCc2ccccc21)C(C)C (stereo partly drawn) [Compound 53, (S)-4-Benzyl-1-[(S)-3-methyl-2-((S)-2-methylamino-propionylamino)-butyryl]-piperazine-2-carboxylic acid (1,2,3,4-tetrahydro-naphthalen-1-yl)-amide]",< 10
19,"CN[C@@H](C)C(=O)N[C@H](C(=O)N1CCN(c2ccc(F)cc2)C[C@H]1C(=O)NC1CCCc2ccccc21)C(C)C (stereo partly drawn) [Compound 44, (S)-4-(4-Fluoro-phenyl)-1-[(S)-3-methyl-2-((S)-2-methylamino-propionylamino)-butyryl]-piperazine-2-carboxylic acid (1,2,3,4-tetrahydro-naphthalen-1-yl)-amide]",< 10

# Same assay, conditions: Series B compounds, Table 3; read-out: XIXP IC50
row,Compound,IC50 [µM]
1,"CN[C@@H](C)C(=O)N[C@H](C(=O)N1CCN(Cc2ccccc2)C[C@H]1C(=O)N1Cc2ccccc2C1)C(C)C [Compound 85, (S)-N-{(S)-1-[(S)-4-Benzyl-2-(1,3-dihydro-isoindole-2-carbonyl)-piperazine-1-carbonyl]-2-methyl-propyl}-2-methylamino-propionamide]",< 10
2,"CN[C@@H](C)C(=O)N[C@H](C(=O)N1CCN(Cc2ccccc2)C[C@H]1C(=O)NCc1ccc(F)cc1)C(C)C [Compound 70, (S)-4-Benzyl-1-[(S)-3-methyl-2-((S)-2-methylamino-propionylamino)-butyryl]-piperazine-2-carboxylic acid 4-fluoro-benzylamide]",< 10
3,"CN[C@@H](C)C(=O)N[C@H](C(=O)N1CCN(Cc2ccccc2)C[C@H]1C(=O)NCc1ccco1)C(C)C [Compound 82, (S)-4-Benzyl-1-[(S)-3-methyl-2-((S)-2-methylamino-propionylamino)-butyryl]-piperazine-2-carboxylic acid (furan-2-ylmethyl)-amide]",< 10
4,"CN[C@@H](C)C(=O)N[C@H](C(=O)N1CCN(Cc2ccccc2)C[C@H]1C(=O)NCc1nccs1)C(C)C [Compound 73, (S)-4-Benzyl-1-[(S)-3-methyl-2-((S)-2-methylamino-propionylamino)-butyryl]-piperazine-2-carboxylic acid (thiazol-2-ylmethyl)-amide]",> 10
5,"CN[C@@H](C)C(=O)N[C@H](C(=O)N1CCN(Cc2ccccc2)C[C@H]1C(=O)NCCC(C)C)C(C)C [Compound 83, (S)-4-Benzyl-1-[(S)-3-methyl-2-((S)-2-methylamino-propionylamino)-butyryl]-piperazine-2-carboxylic acid (3-methyl-butyl)-amide]",> 10
